Calls of active or inactive are those of the source. No cut-off for these calls is given here.
Columns and labels:
Raji [1] = experiment: Cytotoxicity against human Raji cells assessed as [methyl-3H]thymidine incorporation into DNA at 1 ug/ml after 24 hrs; type: functional, cell-based
Raji [2] = experiment: Cytotoxicity against human Raji cells assessed as [methyl-3H]thymidine incorporation into DNA at 0.5 ug/ml after 24 hrs; type: functional, cell-based

Row | Compound | Activity (Raji [1]) | Activity (Raji [2])
1 | C[C@H](O)[C@]1(O)CC[C@@]2(O)[C@]1(C)[C@H](OC(=O)/C=C/c1ccccc1)C[C@@H]1[C@@]3(C)CC[C@H](O)CC3=CC[C@]12O | inactive | inactive
2 | CC(=O)[C@]1(O)CC[C@@]2(O)[C@]1(C)[C@H](OC(=O)c1ccccc1)C[C@@H]1[C@@]3(C)CC[C@H](O)CC3=CC[C@]12O | inactive | inactive
3 | CC(=O)O[C@@H](C)[C@]1(O)CC[C@@]2(O)[C@]1(C)[C@H](OC(=O)/C=C/c1ccccc1)C[C@@H]1[C@@]3(C)CC[C@H](O)CC3=CC[C@]12O | inactive | inactive
4 | CO[C@H]1C[C@H](O[C@H]2CC[C@@]3(C)C(=CC[C@]4(O)[C@@H]3C[C@@H](OC(=O)c3ccccc3)[C@@]3(C)[C@]4(O)CC[C@@]3(O)[C@H](C)OC(=O)/C=C/c3ccccc3)C2)O[C@H](C)[C@H]1O | inactive | inactive
5 | CC(=O)O[C@@H]1C[C@@H]2[C@@]3(C)CC[C@H](O)CC3=CC[C@@]2(O)[C@@]2(O)CC[C@@](O)(C(C)=O)[C@@]12C | inactive | inactive
6 | CO[C@H]1C[C@H](O[C@H]2CC[C@@]3(C)C(=CC[C@]4(O)[C@@H]3C[C@@H](OC(=O)/C=C/c3ccccc3)[C@@]3(C)[C@]4(O)CC[C@@]3(O)[C@H](C)O)C2)O[C@H](C)[C@H]1O[C@H]1C[C@@H](OC)[C@H](O)[C@@H](C)O1 | inactive | inactive
7 | C[C@H](OC(=O)c1ccccc1)[C@]1(O)CC[C@@]2(O)[C@]1(C)[C@H](OC(=O)c1ccccc1)C[C@@H]1[C@@]3(C)CC[C@H](O)CC3=CC[C@]12O | inactive | inactive
8 | CC(=O)[C@]1(O)CC[C@@]2(O)[C@]1(C)[C@H](OC(=O)/C=C/c1ccccc1)C[C@@H]1[C@@]3(C)CC[C@H](O)CC3=CC[C@]12O | inactive | inactive
9 | CC(=O)[C@]1(O)CC[C@@]2(O)[C@]1(C)[C@H](OC(=O)c1cccnc1)C[C@@H]1[C@@]3(C)CC[C@H](O)CC3=CC[C@]12O | inactive | inactive
10 | C[C@H](OC(=O)c1cccnc1)[C@]1(O)CC[C@@]2(O)[C@]1(C)[C@H](OC(=O)/C=C/c1ccccc1)C[C@@H]1[C@@]3(C)CC[C@H](O)CC3=CC[C@]12O | inactive | inactive
11 | CO[C@H]1C[C@H](O[C@H]2CC[C@@]3(C)C(=CC[C@]4(O)[C@@H]3C[C@@H](OC(=O)c3ccccc3)[C@@]3(C)[C@]4(O)CC[C@@]3(O)[C@H](C)OC(=O)/C=C/c3ccccc3)C2)O[C@H](C)[C@H]1O[C@H]1C[C@@H](OC)[C@H](O)[C@@H](C)O1 | inactive | inactive
12 | C[C@H](OC(=O)/C=C/c1ccccc1)[C@]1(O)CC[C@@]2(O)[C@]1(C)[C@H](OC(=O)c1ccccc1)C[C@@H]1[C@@]3(C)CC[C@H](O)CC3=CC[C@]12O | inactive | inactive
13 | CC(=O)O[C@@H](C)[C@]1(O)CC[C@@]2(O)[C@]1(C)[C@H](OC(=O)c1cccnc1)C[C@@H]1[C@@]3(C)CC[C@H](O)CC3=CC[C@]12O | inactive | inactive
14 | CC(=O)O[C@@H]1C[C@@H]2[C@@]3(C)CC[C@H](O)CC3=CC[C@@]2(O)[C@@]2(O)CC[C@@](O)([C@H](C)O)[C@@]12C | inactive | inactive
